The results in this text go back to patent US5635509A, “Piperidine derivatives useful as neurokinin antagonists” (Zeneca Limited, priority 1994, dated 1997).

For assay [1], the target named is T1, guinea pig trachea (Cavia porcellus, UniProt Q64077).
T1 construct: The trachea are removed, trimmed of excess tissue and divided into two segments; from tissue; host or cells: guinea pig trachea rings
T1 sequence (Q64077 1-402): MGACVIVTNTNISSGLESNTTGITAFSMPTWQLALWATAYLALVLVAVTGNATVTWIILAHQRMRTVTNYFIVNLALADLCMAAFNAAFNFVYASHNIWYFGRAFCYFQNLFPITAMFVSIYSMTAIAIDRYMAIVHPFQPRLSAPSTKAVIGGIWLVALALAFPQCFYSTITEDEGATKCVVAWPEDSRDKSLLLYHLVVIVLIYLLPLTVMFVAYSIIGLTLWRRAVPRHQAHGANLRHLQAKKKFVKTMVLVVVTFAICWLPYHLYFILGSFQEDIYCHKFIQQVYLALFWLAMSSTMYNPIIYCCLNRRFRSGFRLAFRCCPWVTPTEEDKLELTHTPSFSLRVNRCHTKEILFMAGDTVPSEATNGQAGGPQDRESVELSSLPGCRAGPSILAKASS
In words: Guinea Pig Assay (Test B), functional assay in guinea pig trachea, antagonism of NKA or [β-ala8]-NKA(4-10) contraction. Format: cell-based. The note with it: -log molar KB, agonist NKA or [β-ala8]-NKA(4-10), 30 min incubation. As for the experimental part: Guinea Pig Assay (Test B)
The chosen agonist is refered to as AG throughout the description.
Male guinea pigs are killed by a sharp blow to the back of the head. The trachea are removed, trimmed of excess tissue and divided into two segments. Each segment is suspended as a ring between stainless steel stirrups in water-jacketed (37.5° C.) tissue baths containing a physiological salt solution of the following composition (mM): NaCl, 119; KCl 4.6; CaCl2, 1.8; MgCl2, 0.5; NaH2 PO4, 1; NaHCO3, 25; glucose, 11; thiorphan, 0.001; and indomethacin, 0.005; gassed continuously with 95% O2 -%5 CO2. […] Contractile responses are measured on a Grass polygraph via Grass FT-03 force transducers.
Tissues are challenged repetitively with a single concentration of AG (10 nM) with intervening 30 min periods with washing to allow the tension to return to baseline levels. […] Percent inhibition is determined when a Compound produces a statistically significant (p<0.05) reduction of the contraction and is calculated using the second contractile response as 100%.
Potencies of selected Compounds are evaluated by calculating apparent dissociation constants (KB) for each concentration tested using the standard equation: […]
where dose ratio=antilog[(AG -log molar EC50 without Compound)--(AG -log molar EC50 with Compound)]. The KB values may be converted to the negative logarithms and expressed as -log molar KB (i.e. pKB). […]

Assay [2] concerns the target T2, human NK2 receptor (Homo sapiens, UniProt P21452).
T2 construct: expressed in transfected cells; host or cells: Mouse Erythroleukemia (MEL) cells
T2 sequence (P21452 1-398): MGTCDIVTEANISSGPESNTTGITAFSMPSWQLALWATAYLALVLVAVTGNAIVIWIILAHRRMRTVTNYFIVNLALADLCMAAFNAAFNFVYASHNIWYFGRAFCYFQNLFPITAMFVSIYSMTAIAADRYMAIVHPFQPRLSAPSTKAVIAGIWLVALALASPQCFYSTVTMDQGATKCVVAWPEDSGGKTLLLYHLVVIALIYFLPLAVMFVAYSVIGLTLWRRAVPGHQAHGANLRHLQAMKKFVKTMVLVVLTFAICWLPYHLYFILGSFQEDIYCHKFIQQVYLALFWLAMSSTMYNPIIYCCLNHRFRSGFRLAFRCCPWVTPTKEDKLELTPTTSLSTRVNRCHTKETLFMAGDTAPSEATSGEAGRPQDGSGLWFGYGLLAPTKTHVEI
In words: Neurokinin A (NKA) Receptor-binding Assay (Test A). The following applies: typically found. The source says:
Neurokinin A (NKA) Receptor-binding Assay (Test A)

Counter-ions that a name gives are not always drawn.

A word on the Kb: it is the equilibrium dissociation constant of an antagonist, usually derived from a functional assay. Regarding `O=C(c1c[nH]nc1-c1ccccc1)C(CCN1CCC(O)(c2ccccc2)CC1)c1ccc(Cl)c(Cl)c1` (centres unmarked) [Example 3, 4-[2-(3,4-Dichlorophenyl)-4-(4-hydroxy-4-phenylpiperidino)butyroyl]-3-phenyl-1H-pyrazole], the Kb in assay [1] was 251 nM.

A word on the Ki: it is the equilibrium dissociation constant of an inhibitor or competing ligand from its target. Read a low Ki as higher affinity. For the compound `O[C@@H](c1nccn1-c1ccccc1)[C@H](CCN1CCC(O)(c2ccccc2)CC1)c1ccc(Cl)c(Cl)c1` (racemic) [Example 2, 2-[(1RS,2RS)-2-(3,4-Dichlorophenyl)-1-hydroxy-4-(4-hydroxy-4-phenylpiperidino)butyl]-1-phenylimidazole Hydrochloride], in assay [2], the inhibition constant Ki is 34 nM.
